Earlier results as cited in patent publication US10610595B2, “Stabilized pharmaceutical formulations of insulin analogues and/or insulin derivatives” (SANOFI, priority 2014, dated 2020).

system: blood glucose level; conditions: Lill, Pharmazie in unserer Zeit 2001

For human insulin, the “amount corresponding to 1 U” value is listed as “approximately 35 μg”.

same assay, conditions: product information

Compared with insulin aspart, insulin detemir [insulin determir] is higher in “amount corresponding to 100 U” value: 3.5 mg for the first, 14.2 mg for the second.

First: insulin glargine
Second: insulin glulisine
The “amount corresponding to 100 U” value of the first is higher: 3.64 mg for the first, 3.49 mg for the second.

For insulin lispro, the “amount corresponding to 100 U” value is listed as 3.5 mg.
